Experimental data as given in article PMC8070033, “Bimetallic Iron–Palladium Catalyst System as a Lewis-Acid for the Synthesis of Novel Pharmacophores Based Indole Scaffold as Anticancer Agents” (Molecules, 2021).
Values after ≈ are worked out from the molar mass of the structure shown.

Columns and labels:
Human fibroblast BJ = assay: Cytotoxicity MTT assay, BJ human fibroblast cells; type: cell-based; conditions: 48 hrs, ± SD from three independent experiments, NA: did not show activity at 30 µM
Method: (§1) Cytotoxicity against BJ Human fibroblast cells, and anti-cancer activity against PC3, HeLa and MCF-7 cancer cell lines were evaluated by following the procedure as described in the literature (Supplementary Materials).
The Biological Activity Assays Protocols […]
(§2) of positive control – mean of O.D of negative control)*100). […]
(§3) Standard drug used in the MTT assay was doxorubicin. […]
B. Cytotoxicity assay Protocol (BJ Human fibroblast cells) […]
standard MTT (3-[4, 5-dimethylthiazole-2-yl]-2, 5-diphenyl-tetrazolium bromide) colorimetric assay (Price & J. McMillan1, 1990). For this purpose, BJ Human fibroblast cells were cultured in Dulbecco’s Modified Eagle Medium, supplemented with 10% of fetal bovine serum (FBS), 100 IU/ml of penicillin and 100 µg/ml of streptomycin and 2 mM L‐glutamine in 75 cm2 flasks, and kept in 5% CO2 incubator at 37 °C (Mannerström, Toimela, Sarkanen & Heinonen, 2017).
Exponentially growing cells were harvested, counted with haemocytometer and diluted with a particular medium. Cell culture with the concentration of 6x10^4cells/ml was prepared and introduced (100 µL/well) into 96-well plates. After overnight incubation, medium was removed and 200 µL of fresh medium was added with different concentrations of compounds (1 -30µM). After 48 hrs, 200 µL MTT (0.5 mg/ml) was added to each well and incubated further for 3 hrs.
Subsequently, 100µL of DMSO was added to each well. The extent of MTT reduction to formazan within cells was calculated by measuring the absorbance at 550 nm, using a micro plate reader (Spectra Max plus, Molecular Devices, CA, USA). The cytotoxicity was recorded as concentra tion causing 50% growth inhibition (IC50) for BJ cells. The percent inhibition was calculated by using the following […]
Following concentrations were used to calculate (in case) of IC50: […]

[1] = test system: PC3 cells (Prostate Cancer); assay: PC3 cells (Prostate Cancer) MTT assay; type: cell-based; conditions: for IC50: MTT assay, 48 hrs, ± SD from three independent experiments, NA: did not show anticancer activity at 30 µM
Method: as §1
The Biological Activity Assays Protocols
A. PC3 cells (Prostate Cancer) assay […]
For this purpose, PC3 cells (Prostate Cancer) were cultured in Dulbecco’s Modified Eagle Medium, supplemented with 5% of fetal bovine serum (FBS), 100 IU/ml of penicillin and 100 µg/ml of streptomycin in 75 cm2 flasks, and kept in 5% CO2 incubator at 37 °C. Exponentially growing cells were harvested, counted with haemocytometer and diluted with a particular medium. Cell culture with the concentration of 1x10^5 cells/ml was prepared and introduced (100 µL/well) into 96-well plates. After overnight incubation, medium was removed and 200 µL of fresh medium was added with different concentrations of compounds (1-30µM). After 48 hrs, 200 µL MTT (0.5 mg/ml) was added to each well and incubated further for 4 hrs. Subsequently, 100µL of DMSO was added to each well. The extent of MTT reduction to formazan within cells was calculated by measuring the absorbance at 570 nm, using a micro plate reader (Spectra Max plus, Molecular Devices, CA, USA). The cytotoxicity was recorded as concentration causing 50% growth inhibition (IC50) for PC3 cells. The percent inhibition was calculated by using the following formula: […]
(§4) of positive control – mean of O.D of negative control)*100).
(§5) The results (% inhibition) were processed by using Soft- Max Pro software (Molecular Device, USA).
Standard drug used in the MTT assay was doxorubicin.
(§6) 1. Mosmann T. Rapid colorimetric assay for cellular growth and survival: application to proliferation and cytotoxicity assays. J Immunol Meth 1983, 65, 55–63. […]

[2] = test system: HeLa cells (Cervical Cancer); assay: HeLa cells (Cervical Cancer) MTT assay; type: cell-based; conditions: ± SD from three independent experiments, NA: did not show anticancer activity at 30 µM
Method: (§7) Cytotoxicity against BJ Human fibroblast cells, and anti-cancer activity against PC3, HeLa and MCF-7 cancer cell lines were evaluated by following the procedure as described in the literature (Supplementary Materials). […]
as §4, §5
(§8) Following concentrations were used to calculate (in case) of IC50:
as §3
C. HeLa cells (Cervical Cancer) assay
Cytotoxic activity of compounds was evaluated in 96-well flat-bottomed micro plates by using the standard MTT (3-[4, 5-dimethylthiazole-2-yl]-2, 5-diphenyl-tetrazolium bromide) colorimetric assay40.
For this purpose, HeLa cells (Cervical Cancer) were cultured in Minimum Essential Medium Eagle, supplemented with 5% of fetal bovine serum (FBS) , 100 IU/ml of penicillin and 100 µg/ml of streptomycin in 75 cm2 flasks, and kept in 5% CO2 incubator at 37 °C. Exponentially growing cells were harvested, counted with haemocytometer and diluted with a particular medium. Cell culture with the concentration of 6x10^4 cells/ml was prepared and introduced (100 µL/well) into 96 -well plates. After overnight incubation, medium was removed and 200 µL of fresh medium was added with different concentrations of compounds (1-30µM). After 48 hrs, 200 µL MTT (0.5 mg/ml) was added to each well and incubated further for 4 hrs. Subsequently, 100µL of DMSO was added to each well. The extent of MTT reduction to formazan within cells was calculated by measuring the absorbance at 570 nm, using a micro plate reader (Spectra Max plus, Molecular Devices, CA, USA). The cytotoxicity was recorded as concentration causing 50% growth inhibition (IC 50) for HeLa. The percent inhibition was calculated by using the following formula: […]
The results (% inhibition) were processed by using Soft - Max Pro software (Molecular Device, USA).
as §6

[3] = test system: MCF-7 breast cancer cell line; assay: MCF-7 breast cancer cell line MTT assay; type: cell-based; conditions: for IC50: MTT assay, 48 hours, ± SD from three independent experiments, NA: did not show anticancer activity at 30 µM
Method: as §7, §2, §8, §3
D. MCF-7 breast cancer cell line assay.
MTT assay is a rapid and quantitative assay capable of measuring the surviving or proliferating cells.
It is based on the reduction of tetrazolium salt MTT (3-(4,5-dimethylthiazol-yl)-2,5-diphenyl tetrazolium bromide) by various dehydrogenase enzymes present in living cells. The tetrazolium ring present in MTT is cleaved in active mitochondria, which results in production of purple colored formazan crystals. These crystals are dissolved in DMSO and optical density of the color produced is taken by spectrophotometer (ELISA reader), with high efficiency and accuracy.
This assay was optimized and slightly modified according to our cell lines, i.e. MCF-7 breast cancer cell […]
1. MCF-7 cell line were cultured in Dulbecco’s modified Eagle medium (containing 10% fetal bovine serum) in 75 cc flasks, and kept in 5% CO 2 incubator at 37 °C.
2. Upon confluency, cells were harvested and plated in 96-well tissue culture treated flat bottom plates (seeding density 8,000 cells/well for MCF-7) in 100 µL medium.
3. Next day, compounds were added in triplicate at 50 µM concentration, and incubated for 48 hours. For natural extracts, the concentration was 50 µg/mL.
4. After 48 hrs incubation, the compounds were removed and 200 µL MTT at 0.5 mg/mL was added to each well and incubated at 37 °C for 3 hours.
5. Formazan crystals, formed by reduction of MTT were dissolved in 100 µL DMSO and absorbance was taken at 570 nm using micro-plate reader (Spectra Max plus, Molecular […]
6. The percent inhibition or decrease in viable cells was calculated by following formula:
% Inhibition = 100 - (mean of O.D. of test compound - mean of O.D. of negative control) / (mean of O.D. of positive control - mean of O.D. of negative control) x 100) […]
Twenty (20) mM stock concentration of compounds were diluted to working concentration of 50 µM, and then further serial dilutions were made in order to get less than 50% inhibition.
The IC50 was then calculated by using EZ-fit5 software.

P-388 cell lines = test system: P-388 cell lines; parameters: method as in PMID 8597898, doi:10.1016/j.tet.2007.05.127, doi:10.1021/jo00248a040; conditions: cited from earlier work
MDAMB (human mammary) = test system: MDAMB (human mammary); parameters: method as in PMID 8597898, doi:10.1016/j.tet.2007.05.127, doi:10.1021/jo00248a040; conditions: cited from earlier work
HCT-8 (human colon) = test system: HCT-8 (human colon); parameters: method as in PMID 8597898, doi:10.1016/j.tet.2007.05.127, doi:10.1021/jo00248a040; conditions: cited from earlier work
A-549 (human lung) = test system: A-549 (human lung); parameters: method as in PMID 8597898, doi:10.1016/j.tet.2007.05.127, doi:10.1021/jo00248a040; conditions: cited from earlier work

Row | Structure (SMILES) | IC50 (Human fibroblast BJ) [µM] | IC50 ([1]; Homo sapiens, PC-3, 48 h) [µM] | IC50 ([2]; Homo sapiens, HeLa, 48 h) [µM] | IC50 ([3]; Homo sapiens, MCF7, 48 h) [µM] | melting point [°C] | also measured
1 | O=C(CC(c1cc2ccccc2o1)c1c[nH]c2ccccc12)c1ccc(F)cc1 (centres unmarked) [Compound 3b, 3-(Benzofuran-2-yl)-1-(4-fluorophenyl)-3-(1H-indol-3-yl)propan-1-one] | > 30 | 22.2 ± 0.5 | 8.2 ± 0.2 | 12.3 ± 0.04 | 157 to 158 | IC50 [3]: 12.37 ± 0.04 µM
2 | COc1cccc(C(=O)CC(c2cc3ccccc3o2)c2c[nH]c3cc(F)ccc23)c1 (centres unmarked) [Compound 3m, 3-(Benzofuran-2-yl)-3-(6-fluoro-1H-indol-3-yl)-1-(3-methoxyphenyl)propan-1-one] | > 50 | 19.3 ± 0.1 | 15.2 ± 0.2 | 22.9 ± 0.43 | 154 to 155 | IC50 [3]: 22.9 ± 0.43 µM
3 | COc1cccc2c1C(=O)c1c(O)c3c(c(O)c1C2=O)C[C@@](O)(C(=O)CO)C[C@@H]3O[C@H]1C[C@H](N)[C@H](O)[C@H](C)O1 [Doxorubicin, doxorubicin, reference compound] |  |  |  | 0.79 ± 0.05 |  | IC50 [1]: 1.9 ± 0.4 µM; IC50 ([1]; listed as doxorubicin): 0.9 ± 0.14 µM; IC50 ([2]; 48 hrs): 0.9 ± 0.14 µM; IC50 ([2]; 48 hrs, listed as doxorubicin): 1.9 ± 0.4 µM
4 | O=C(CC(c1cc2ccccc2o1)c1c[nH]c2ccccc12)c1ccccc1 (centres unmarked) [Compound 3a, 3-(Benzofuran-2-yl)-3-(1H-indol-3-yl)-1-phenylpropan-1-one] |  | 11.4 ± 0.2 | 22.5 ± 0.9 |  | 114 to 115 | anticancer activity against MCF-7 breast cancer cell line (in words) ([3]; in comparison to doxorubicin): inactive
5 | COc1ccccc1C(=O)CC(c1cc2ccccc2o1)c1c[nH]c2ccc(Br)cc12 (centres unmarked) [Compound 3s, 3-(Benzofuran-2-yl)-3-(5-bromo-1H-indol-3-yl)-1-(2-methoxyphenyl)propan-1-one] |  | 29.7 ± 0.5 | 18.4 ± 0.2 | 28.6 ± 0.33 | 60 to 61 | anticancer activity against PC3 prostate cancer cell line (in words) ([1]; in comparison to doxorubicin): inactive
6 | CN1CC(c2c[nH]c3c(Br)c(Br)cc(O)c23)NCC1c1c[nH]c2cc(Br)ccc12 (centres unmarked) [dragmacidin] |  |  |  |  |  | IC50, anti-tumor activity against P-388 cell lines (P-388 cell lines): 15 µg/mL (≈ 25.7 µM); IC50 against MDAMB (human mammary) cancer cell line (MDAMB (human mammary)): 1 to 10 µg/mL; IC50 against HCT-8 (human colon) cancer cell line (HCT-8 (human colon)): 1 to 10 µg/mL; IC50 against A-549 (human lung) cancer cell line (A-549 (human lung)): 1 to 10 µg/mL
7 | O=C(CC(c1cc2ccccc2o1)c1c[nH]c2ccccc12)c1ccc(Cl)cc1 (centres unmarked) [Compound 3f, 3-(Benzofuran-2-yl)-1-(4-chlorophenyl)-3-(1H-indol-3-yl)propan-1-one] | > 30 | 16.3 ± 1.6 | 11.9 ± 0.2 | 19.3 ± 0.78 | 126 to 127 | IC50 [1]: 27 ± 0.4 µM
8 | O=C(CC(c1cc2ccccc2o1)c1c[nH]c2ccc(Br)cc12)c1ccc(F)cc1 (centres unmarked) [Compound 3c, 3-(Benzofuran-2-yl)-3-(5-bromo-1H-indol-3-yl)-1-(4-fluorophenyl)propan-1-one] | > 30 | 21.9 ± 1.5 | 10.8 ± 0.1 | 25.9 ± 0.8 | 167 to 168 | 
